{
  "source": "patent US6875578B2",
  "about": "“System for cell-based screening” (priority 1997, dated 2005)",
  "settings_in_all_cases": "30 hours",
  "key": {"BHK cells [1]": {"system": "BHK cells", "test": "Apoptosis mitochondrial mass/potential, BHK cells", "format": "cell-based", "procedure": "(§1) Cells were plated into 96-well plates at densities of 3×10^3 to 1×10^4 cells/well. The following day apoptotic inducers were added at the indicated concentrations and cells were incubated for the indicated time periods (usually 16-30 hours). Cells were stained with 5 μg/ml Hoechst (Molecular Probes, Inc.) and 750 nM MITOTRACKER™ Red (CMXRos, Molecular Probes, Inc.) in fresh medium and incubated for 30 minutes at 37° C. Cells were washed in HBSS and fixed with 3.7% formaldehyde in HBSS at room temperature. Plates were washed with HBSS and permeabilized with 0.5% v/v TRITON™ X-100 in HBSS at room temperature. Cells were washed 2× with HBSS at room temperature and the plate was sealed. For dual labeling of mitochondria, cells were treated with 200 nM MITOTRACKER™ Green and 200 nM MITOTRACKER™ Red for 0.5 hours before fixation.\n(§2) The mitochondrial membrane potential is measured by labeling mitochondria with both MITOTRACKER™ Green FM and MITOTRACKER™ Red (Molecular Probes, mc). MITOTRACKER™ Red labeling is proportional to both mass and membrane potential. MITOTRACKER™ Green FM labeling is proportional to mass. The ratio of MITOTRACKER™ Red signal to the MITOTRACKER™ Green FM signal provides a measure of mitochondrial membrane potential (Poot and Pierce, 1999). This ratio normalizes the […]. […]"}, "BHK cells [2]": {"system": "BHK cells", "test": "Apoptosis actin reorganization (f-actin content), BHK cells", "format": "cell-based", "procedure": "(§3) Cells were plated in 96-well plates at densities of 3×10^3 to 1×10^4 cells/well. The following day apoptotic inducers were added at indicated concentrations. Cells were incubated for the indicated time periods (usually 16-30 hours). The next day the medium was removed and cells were stained with 5 μg/ml Hoechst (Molecular Probes, Inc.) in fresh medium and incubated for 30 minutes at […]. Cells were washed in HBSS and fixed with 3.7% formaldehyde in HBSS at room temperature. Plates were washed with HBSS and permeabilized with 0.5% v/v Triton X-100 in HBSS at room temperature. Plates were washed in HBSS and stained with 100 μl of 1 U/ml of Alexa 488 Phalloidin stock (100 μl/well, Molecular Probes, Inc.). Cells were washed 2×with HBSS at RT and the plate was sealed.\n(§4) Quantitation of f-actin content was accomplished by measuring the intensity of phalloidin staining around the nucleus. This was determined to be a reasonable approximation of a full cytoplasmic average of the intensity. The mask used to approximate this cytoplasmic measure was derived from the nuclear mask defined by the Hoechst stain. Derivation was accomplished by combinations of erosions and dilations."}, "L929 cells [3]": {"system": "L929 cells", "test": "Apoptosis mitochondrial mass/potential, L929 cells", "format": "cell-based, mouse", "procedure": "as §1, §2"}, "L929 cells [4]": {"system": "L929 cells", "test": "Apoptosis nuclear morphology, L929 cells", "format": "cell-based, mouse", "procedure": "(§5) Cells were plated into 96-well plates at densities of 3×10^3 to 1×10^4 cells/well. The following day apoptotic inducers were added at indicated concentrations and cells were incubated for indicated time periods (usually 16-30 hours). The next day medium was removed and cells were stained with 5 μg/ml Hoechst (Molecular Probes, Inc.) in fresh medium and incubated for 30 minutes at 37° C. Cells were washed in Hank's Balanced Salt Solution (HBSS) and fixed with 3.7% formaldehyde in HBSS at room temperature. Cells were washed 2×with HBSS at room temperature and the plate was sealed.\n(§6) Quantitation of changes in nuclear morphology upon induction of apoptosis was accomplished by (1) measuring the effective size of the nuclear region; and (2) measuring the degree of convolution of the perimeter."}, "L929 cells [5]": {"system": "L929 cells", "test": "Apoptosis actin reorganization (f-actin content), L929 cells", "format": "cell-based, mouse", "procedure": "as §3, §4"}, "BHK cells [6]": {"system": "BHK cells", "test": "Apoptosis nuclear morphology, BHK cells", "format": "cell-based", "procedure": "as §5, §6"}},
  "note": "“Also recorded” adds a separate entry of the source.",
  "data": [
    {"smiles": "CC(=O)O[C@H]1C(=O)[C@@]2(C)[C@H]([C@H](OC(=O)c3ccccc3)[C@]3(O)C[C@H](OC(=O)[C@H](O)[C@@H](NC(=O)c4ccccc4)c4ccccc4)C(C)=C1C3(C)C)[C@]1(OC(C)=O)CO[C@@H]1C[C@@H]2O", "note": "[paclitaxel]", "values": [
      {"measurement": "mitochondrial changes (mass / membrane potential)", "setting": "BHK cells [1]", "value": "consistent increases in mitochondrial mass"},
      {"measurement": "change in peri-nuclear f-actin content", "setting": "BHK cells [2]", "value": "results that are more variable"},
      {"measurement": "change in peri-nuclear f-actin content", "setting": "BHK cells [2]; listed as Paclitaxel", "value": "highly variable"},
      {"measurement": "mitochondrial changes (mass / membrane potential)", "setting": "L929 cells [3]", "value": "consistent increases in mitochondrial mass"},
      {"measurement": "change in nuclear morphology", "setting": "L929 cells [4]", "value": "dose-dependent change in nuclear morphology; also recorded: classic nuclear fragmentation"},
      {"measurement": "change in peri-nuclear f-actin content", "setting": "L929 cells [5]", "value": "dose-dependent increases in f-actin content"},
      {"measurement": "change in peri-nuclear f-actin content", "setting": "L929 cells [5]; listed as Paclitaxel", "value": "graded increases in f-actin"},
      {"measurement": "change in nuclear morphology", "setting": "BHK cells [6]", "value": "consistent increase in nuclear fragmentation with increasing concentrations; also recorded: a more classical response"}
    ]}
  ]
}
